Measured values reported in the METLIN SMRT retention time set (Domingo-Almenara et al. 2019).

Experiment: gradient 5% acetonitrile 3 min, to 50% in 2 min, to 85% in 15 min, held 3 min, 100 µL/min
Conditions: column: Zorbax Extend-C18 2.1 x 50 mm; eluents: water / acetonitrile, 0.1% formic acid
Summary of the method: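 Pure standards were analyzed in mixtures of ~100 molecules using HPLC coupled to a quadrupole time-of-flight mass spectrometer, in both positive and negative ionization mode. Separation used a Zorbax Extend-C18 column (2.1 × 50 mm, 1.8 μm) at 100 μL/min, with water and acetonitrile each containing 0.1% formic acid. Dead and dwell volumes were 40 μL and 900 μL, and data were collected over 3 months. Retention time was read from computationally picked adduct peaks, each inspected manually.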

Compound	RP-LC retention time [s]
Cc1nc(C(=O)Nc2ccc(Cl)cc2C)c(C)o1	1030
O=C(NCCN1CCOCC1)C1CCc2sc(C(=O)N3CCCCC3)cc2C1 (configuration not stated)	563
CC(=O)N1CCc2cc(N3CC(C(=O)Nc4ccccc4Cl)CC3=O)ccc21 (configuration not stated)	701
CCOC(=O)c1c(C)c(CCC(=O)NC(C)C)n(CC)c1C	821
CCN(CCN(C)C)c1ccc(C(=O)O)cc1NS(=O)(=O)c1cccc(C)c1	620
Cc1csc(-c2cc(S(=O)(=O)NCc3ccc(N(C)C)cc3)c(C)s2)n1	763
COc1ccc(NC(=O)N2CCCC2c2nc(-c3ccc(F)cc3F)no2)c(OC)c1 (configuration not stated)	940
CCCN1C(=O)Cc2cc(C(=O)NCc3ccc(SC)cc3)ccc21	829
Cc1cc(N2CCN(C)CC2)nc2ccc(NC(=O)Nc3ccc(Cl)cc3)cc12	610
COC(=O)C(C)NC(=O)N1CCCN(C2=NS(=O)(=O)C(c3ccc(C)cc3)=C2C)CC1 (configuration not stated)	736
O=c1n(CCOc2ccc(F)cc2)nc2ccc(S(=O)(=O)N3CCCCC3)cn12	938
CC(C)CC(NC(=O)c1cccs1)C(=O)Nc1nc2ccccc2[nH]1 (configuration not stated)	703
COc1ccccc1-c1nc(-c2ccccn2)no1	813
Cc1ccc(CN2C(=O)N(c3ccc(F)cc3)c3ncccc3S2(=O)=O)cc1	1100
COc1ccc(CNC(=O)c2c(O)c3cccnc3[nH]c2=O)cc1	892
Cc1ccnc(Nc2nc(-c3ccc(C)cc3C)cs2)c1	859
O=C(NCCn1nc(-n2cccn2)ccc1=O)c1ccc2nsnc2c1	621
CC(C)n1c(N2CCCN(C(=O)c3cccs3)CC2)cc(=O)n(C(C)C)c1=O	794
Cc1cccc(N2C=C(C(=O)N3CCOCC3)S(=O)(=O)c3ccc(F)cc32)c1	793
CCN1C(=O)CCc2cc(NS(=O)(=O)Cc3ccccc3Cl)ccc21	803
Cc1ccc(NC(=O)CSc2nnc3c4cc(-c5ccc(F)cc5)nn4ccn23)c(C)c1	931
CCc1cc(C(=O)Nc2ccc(C#N)cc2)nc2ccnn12	965

Compound	RP-LC retention time [s]
COc1ccc2[nH]cc(CCNC(=O)c3c(-c4cccnc4)noc3C)c2c1	667
CCOC(=O)C1=C(CNc2ccc(C)c(Cl)c2)NC(=O)NC1c1ccc2c(c1)OCO2 (configuration not stated)	897
COc1ccc(-c2ccnc3nc(Cc4ccc(F)cc4)nn23)cc1	920
CCC1=NS(=O)(=O)c2cccnc2N1c1ccc(CC)cc1	931
CC1=C(c2ccc(C)c(C)c2)S(=O)(=O)N=C1N1CCCN(C(=O)C(C)C)CC1	854
CN1CCN(CCNC(=O)c2ccc3ccnc(N4CCN(c5ccc(F)cc5)CC4)c3c2)CC1	580
Cc1cc(-c2nnc(-c3ccccc3)o2)c(C)n1CC(=O)NCc1ccc(F)cc1F	934
CC(=O)c1ccc(NC(=O)Cn2cnc3nc4c(cc3c2=O)CC(C)CC4)cc1 (configuration not stated)	738
O=S(=O)(Nc1ccc(Cn2cncn2)cc1)c1ccc(Br)cc1	747
COCCN1C(=O)Cc2ccccc2C1C(=O)NCc1cc(F)ccc1F (configuration not stated)	738
CC(=O)Nc1ccc(-c2nc(-c3ccc4c(c3)oc(=O)n4C(C)C)no2)cc1	943
COc1ccc(Cl)cc1C(=O)Nc1cnc(N2CCCC2)nc1	818
CC(=O)Nc1ccc(C2(C(=O)NCc3ccc(F)cc3)CCC2)cc1	748
CCCOc1ccc(C2NCCc3c2[nH]c2ccccc32)cc1OC (configuration not stated)	642
CCc1cccc(Nc2nc(C)cc(=O)n2CC(=O)Nc2ccc3c(c2)OCCO3)c1	1040
CCOc1ccc(NC(=O)C2CCCN2S(=O)(=O)c2ccc(OCC)cc2)cc1 (configuration not stated)	967
Cn1cnc2cc(-c3noc(C4CC(=O)N(c5cccc(Cl)c5)C4)n3)ccc21 (configuration not stated)	697
CCN(CC)CCCNc1ncnc2c1cnn2-c1ccc(C)c(C)c1	663
CCN1C(=O)COc2ccc(-c3noc(/C=C/c4ccccc4)n3)cc21	1170
Cc1ccc(Nc2c(-c3ccc(N(C)C)cc3)nc3cnccn23)cc1Cl	958
O=C(CC1CSc2ccccc2NC1=O)NC1CCCCCC1 (configuration not stated)	822
COc1cc(=O)n2c(c1C(=O)Nc1ccc3c(c1)OCCO3)CCCC2	647

Other lines, results leading:

RP-LC retention time [s]	Compound
564	Cn1cc(C2c3nccn3CCCN2C(=O)c2cccn2C)cn1 (configuration not stated)
569	CN1CCCn2nc(C3CCN(C(=O)CSc4ccncc4)CC3)cc2C1=O
815	Cc1nc2ncnn2c(C)c1CCC(=O)N1CCC(Cc2ccccc2)CC1
719	CC(C)c1nc(-n2cccc2)sc1C(=O)NCCCN1CCCCC1
803	O=C(Cn1cnc(-c2noc(-c3ccccc3)n2)c1)NCc1ccccc1
761	O=C(NCc1ccccc1)C1CCN(c2ccc(SCc3ccccc3)nn2)CC1
805	Cc1[nH]c2ccccc2c1C(=O)C(=O)N(C)Cc1ccccc1
597	COc1ccc(OC)c(N2CC(c3nc4ccccc4n3CCN3CCOCC3)CC2=O)c1 (configuration not stated)
581	CCN1CCN(c2ncc(C(=O)Nc3c(F)cc(F)cc3Br)c3ccccc23)CC1
798	O=C(Cc1cccc(F)c1)N1CCN(c2cc(-c3cccs3)[nH]n2)CC1
988	Cc1ccc(S(=O)(=O)N2CCC(n3cnc4ccc(C)cc4c3=O)CC2)c(C)c1
602	CC(NC(=O)COc1ccccc1)C(=O)N1CCN(c2ccccn2)CC1 (configuration not stated)
547	COc1cccc(CNC2CCN(c3ccc(C(=O)NC4CC4)cn3)C2)c1 (configuration not stated)
648	O=C(NC1CCCC1)N1CCC2(CC1)N(c1ccccc1)C(=O)CS2=O (configuration not stated)
902	CN1C(=O)Cc2cc(S(=O)(=O)CCC(=O)N3CCN(c4ccccn4)CC3)ccc21
774	COc1ccc2nc(OC3CCN(C(=O)c4ccc(S(C)(=O)=O)cc4)CC3)sc2c1
679	O=C(NCCc1ccccc1)N1C[C@@H]2C[C@H](NS(=O)(=O)c3cccnc3)[C@H]1C2
585	O=C(C1CCCO1)N1CCC(OCc2nc(-c3ccncc3)no2)CC1 (configuration not stated)
831	CC1=C(c2ccc(F)cc2)S(=O)(=O)N=C1N1CCCN(C(=O)c2ccccc2C)CC1
625	O=C(Nc1cccc(C(F)(F)F)c1)C1CCN(c2cc(-n3ccnc3)ncn2)CC1
979	CCn1c(=O)sc2cc(S(=O)(=O)N3CCC(C(=O)NCc4ccc(F)cc4)CC3)ccc21
866	O=C(c1ccc2cc[nH]c2c1)N1CCC(c2nc(-c3ccccc3)no2)C1 (configuration not stated)
548	Cc1cc(Nc2ccc(NC(=O)Cn3cnc4ccccc43)cc2)nc(N2CCCC2)n1
